Test results taken from patent US8853424B2 (Japan Science and Technology Agency, priority 2008, dated 2014).
Like-named read-outs stand apart in the source and are kept apart here.

Columns and labels:
transglutaminase (TGase) = assay: Measurement of TG (TGase inhibitory activity, monodansyl cadaverine / N,N-dimethylcasein fluorescence, FDSS 3000); assay type: biochemical
Method in brief: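 Compound (1 μL of 10 mM stock) added to 0.1 mL reaction: 100 mM HEPES-NaOH pH 7.5, 1 mM CaCl2, 20 μM monodansyl cadaverine, 0.05 mg/mL N,N-dimethylcasein, 5 μg/mL TGase. Rate of fluorescence change at 340 nm measured; DMSO control set to 100; TG50 is the concentration halving activity.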

[1] = system: Truncated N-terminal huntington 150 Q-EGFP-Neuron 2a cells; assay: Measurement of x-Fold (polyglutamine aggregation inhibitory activity); assay type: cell-based
Experimental: In the present invention, the polyglutamine aggregation inhibitory activity (x-Fold) can be measured, for example, by the method described in the Example.
The number of the aggregated cells, and the total number of cells were counted by Array Scan V T1 (manufactured by Cellomics, Pittuburg, USA), and the ratio of the aggregated cells to the total number of cells was determined (x-Fold). […]

[2] = system: SOC (store operated calcium channel); assay: Measurement of SOC IC50 (thapsigargin store depletion, calcium re-addition, CHO cells); assay type: cell-based; settings: read-out: SOC IC50
Experimental: The SOC (store operated calcium channel)-suppressive action can be measured by the method described in the Example and using, for example, FDSS 3000.
CHO cell culture medium was replaced with a BSS solution which is an extracellular fluidfree of calcium, the compound of the present invention was added 1 min later, and 1 μM thapsigargin was allowed to act thereon 2 min later to deplete intracellular calcium store. […]

[3] = TGase activity with compound (10 mM, 1 μL in 0.1 ml enzyme reaction solution), DMSO control taken as 100
[4] = ratio of aggregated cells to total number of cells, compound 20 μM, 20 hr, almost 1 without compound, smaller = stronger inhibition
[5] = CHO cells, 1 μM thapsigargin, 2 mM calcium chloride
[6] = Cricetulus griseus, CHO, CHO cells, 1 μM thapsigargin, 2 mM calcium chloride
[7] = TGase inhibitory activity value, Table 1
[8] = polyglutamine aggregation inhibitory activity, Table 1
[9] = Cricetulus griseus, CHO, Table 1

Row | TGase activity remaining (% of DMSO control = 100) (transglutaminase (TGase); [3]) | TGase activity remaining (% of DMSO control = 100) (transglutaminase (TGase); TGase inhibitory activity value, Table 1, listed as 1024) | IC50 [2, 5] | IC50 [2, 6] | TGase activity remaining (% of DMSO control = 100) (transglutaminase (TGase); [7]) | IC50 [2, 9] | TGase activity remaining (% of DMSO control = 100) (transglutaminase (TGase); TGase inhibitory activity value, Table 1, listed as 5020) | TGase activity remaining (% of DMSO control = 100) (transglutaminase (TGase); TGase inhibitory activity value, Table 1, listed as 7020) | TGase activity remaining (% of DMSO control = 100) (transglutaminase (TGase); TGase inhibitory activity value, Table 1, listed as 7085) | SMILES | x-Fold ([1]; polyglutamine aggregation inhibitory activity, Table 1, listed as 1024) | x-Fold [1, 4] | x-Fold [1, 8] | x-Fold ([1]; polyglutamine aggregation inhibitory activity, Table 1, listed as 5020) | x-Fold ([1]; polyglutamine aggregation inhibitory activity, Table 1, listed as 7020) | x-Fold ([1]; polyglutamine aggregation inhibitory activity, Table 1, listed as 7085)
1 | 83 | 83 | 250 nM | – | – | – | – | – | – | NC(=O)CCC(N)C(=O)OB(c1ccccc1)c1ccc(Oc2ccc(B(OC(=O)C(N)CCC(N)=O)c3ccccc3)cc2)cc1 (stereo not drawn) [Example 273, bis(4,4′-(phenyl-glutamineboryl)phenyl)ether] | 0.56 | 0.56 | – | – | – | –
2 | 56 | – | 300 nM | – | – | – | – | – | – | NC(=O)CC(N)C(=O)OB(c1ccccc1)c1ccc(Oc2ccc(B(OC(=O)C(N)CC(N)=O)c3ccccc3)cc2)cc1 (stereo not drawn) [Example 274, bis(4,4′-(phenylasparagineboryl)phenyl)ether] | – | 0.59 | – | – | – | –
3 | 117 | – | – | 300 nM | – | – | – | – | – | NC(CCC(=O)O)C(=O)OB(c1ccccc1)c1ccc(Oc2ccc(B(OC(=O)C(N)CCC(=O)O)c3ccc(CO)cc3)cc2)cc1 (stereo not drawn) [Example 275, (4-(phenyl-glutamic acid boryl)phenyl)-(4′-(hydroxymethylphenyl-glutamic acid boryl)phenyl)ether] | – | 0.67 | – | – | – | –
4 | 2 | – | – | 300 nM | 2 | 300 nM | – | – | – | NCCOB(c1ccccc1)c1cccc(COCc2cccc(Oc3ccccc3)c2)c1 [Example 278, (3-phenoxybenzyl)-(3′-(phenyl-2-aminoethoxyboryl)benzyl)ether] | – | 1.08 | 1.08 | – | – | –
5 | 51 | – | – | 2000 nM | 51 | 2000 nM | – | – | – | NCCSB(c1ccc(C(F)(F)F)cc1)c1ccc(C(F)(F)F)cc1 [Example 285, di(4-trifluoromethylphenyl) 2-aminoethylthioborane] | – | 0.99 | 0.99 | – | – | –
6 | 98 | – | 200 nM | – | – | – | – | – | – | Cc1ccc(B(O)c2ccc(COCc3ccc(B(O)c4ccc(C)c(Cl)c4)cc3)cc2)cc1Cl [Example 322, bis(4,4′-(3-chloro-4-methylphenylhydroxyboryl)benzyl)ether] | – | 0.32 | – | – | – | –
7 | 92 | – | – | 4000 nM | 92 | 4000 nM | – | – | – | OB(c1ccc(Oc2ccc(B(O)c3ccc(C(F)(F)F)cc3)cc2)cc1)c1ccc(C(F)(F)F)cc1 [Example 325, bis(4-(4-trifluoromethylphenylhydroxyboryl)phenyl)ether] | – | 0.99 | 0.99 | – | – | –
8 | 101 | – | – | 1000 nM | 101 | 1000 nM | – | – | – | OB(c1ccccc1)c1ccc(COCc2ccccc2B(O)c2ccccc2)cc1 [Example 331, (2-(phenylhydroxyboryl)benzyl)(4-(phenylhydroxyboryl)benzyl)ether] | – | 0.98 | 0.98 | – | – | –
9 | 21 | – | – | 200 nM | 21 | 200 nM | – | – | – | NCCOB(c1ccccc1)c1ccc(COCc2cccc(B(OCCN)c3ccccc3)c2)cc1 [Example 332, (3-(phenylaminoethoxyboryl)benzyl)(4-(phenylaminoethoxyboryl)benzyl)ether] | – | 0.98 | 0.98 | – | – | –
10 | 100 | – | – | > 20000 nM | 100 | > 20000 nM | – | – | – | Cc1ccc(B(O)c2ccc(COCc3ccc(B(O)c4ccc(C)cc4)cc3)cc2)cc1 [Example 361, bis(4-(4-methylphenylhydroxyboryl)benzyl)ether] | – | 0.88 | 0.88 | – | – | –
11 | 16 | – | – | 2000 nM | 16 | 2000 nM | – | – | – | NCCOB(c1ccccc1)c1ccc(COc2ccc(B(OCCN)c3ccccc3)cc2)cc1 [Example 371, (4-phenylaminoethoxyborylphenyl)(4′-phenylaminoethoxyborylbenzyl)ether] | – | 0.85 | 0.85 | – | – | –
12 | 70 | – | – | > 20000 nM | 70 | > 20000 nM | – | – | – | CC(C)(C)c1cc(B(O)c2ccccc2)c2c(c1)C(C)(C)c1cc(C(C)(C)C)cc(B(O)c3ccccc3)c1O2 [Example 377, 4,5-di(phenylhydrixyboryl)-2,7-di-tert-butyl-9,9-dimethylxanthrene] | – | 0.75 | 0.75 | – | – | –
13 | 10 | – | 500 nM | – | 10 | – | – | – | – | CNCCOB(c1ccccc1)c1ccc(Oc2ccc(B(OCCNC)c3ccccc3)cc2)cc1 [Example 386, bis(4,4′-(phenyl-N-methylaminoethoxyboryl)phenyl)ether] | – | 0.98 | 0.98 | – | – | –
14 | 41 | – | 500 nM | – | – | – | – | – | 41 | NC(=O)CCC(N)C(=O)OB(c1ccccc1)c1ccc(Oc2ccc(B(OC(=O)C(N)CCC(N)=O)c3ccccc3)cc2)cc1 (stereo not drawn) [Example 388, bis(4,4′-(phenyl-glutamineboryl)phenyl)ether] | – | 0.67 | – | – | – | 0.67

The remaining lines, values behind:

Row | SMILES | TGase activity remaining (% of DMSO control = 100) (transglutaminase (TGase); [3]) | TGase activity remaining (% of DMSO control = 100) (transglutaminase (TGase); TGase inhibitory activity value, Table 1, listed as 1024) | IC50 [2, 5] | IC50 [2, 6] | TGase activity remaining (% of DMSO control = 100) (transglutaminase (TGase); [7]) | IC50 [2, 9] | TGase activity remaining (% of DMSO control = 100) (transglutaminase (TGase); TGase inhibitory activity value, Table 1, listed as 5020) | TGase activity remaining (% of DMSO control = 100) (transglutaminase (TGase); TGase inhibitory activity value, Table 1, listed as 7020) | TGase activity remaining (% of DMSO control = 100) (transglutaminase (TGase); TGase inhibitory activity value, Table 1, listed as 7085) | x-Fold ([1]; polyglutamine aggregation inhibitory activity, Table 1, listed as 1024) | x-Fold [1, 4] | x-Fold [1, 8] | x-Fold ([1]; polyglutamine aggregation inhibitory activity, Table 1, listed as 5020) | x-Fold ([1]; polyglutamine aggregation inhibitory activity, Table 1, listed as 7020) | x-Fold ([1]; polyglutamine aggregation inhibitory activity, Table 1, listed as 7085)
15 | O=C(OB(c1ccccc1)c1ccccc1)C1CCCN1 (stereo not drawn) [Example 277, diphenyl(prolinate-O,N)borane] | 105 | – | – | 300 nM | 105 | 300 nM | – | – | – | – | 0.98 | 0.98 | – | – | –
16 | Cc1ccc(B(OC(=O)C(N)CC(N)=O)c2ccc(C)c(Cl)c2)cc1Cl (stereo not drawn) [Example 282, di(3-chloro-4-methylphenyl)(asparaginate-O,N)borane] | 112 | – | – | 300 nM | – | – | – | – | – | – | 0.95 | – | – | – | –
17 | Cc1ccc(B(Sc2ccccc2N)c2ccc(C)c(Cl)c2)cc1Cl [Example 283, di(3-chloro-4-methylphenyl) 2-aminophenylthioborane] | 12 | – | – | 900 nM | 12 | 900 nM | – | – | – | – | 0.83 | 0.83 | – | – | –
18 | Cc1ccc(B(OC(=O)C(N)C(C)O)c2ccc(C)c(Cl)c2)cc1Cl (stereo not drawn) [Example 291, di(3-chloro-4-methylphenyl)(allothreoninate-O,N)borane] | 50 | – | – | 500 nM | 50 | 500 nM | – | – | – | – | 1.02 | 1.02 | – | – | –
19 | CCCCC(N)C(=O)OB(c1ccc(C)c(Cl)c1)c1ccc(C)c(Cl)c1 (stereo not drawn) [Example 292, di(3-chloro-4-methylphenyl)(norloysinate-O,N)borane] | 146 | – | – | 1000 nM | – | 1000 nM | 146 | – | – | – | 1.00 | – | 1.00 | – | –
20 | CN(C)CCSB(c1ccccc1)c1ccccc1 [Example 294, diphenyl dimethylaminoethylthioborane] | 114 | – | – | 2000 nM | 114 | 2000 nM | – | – | – | – | 0.96 | 0.96 | – | – | –
21 | Cc1ccc(B(SCCN(C)C)c2ccc(C)c(Cl)c2)cc1Cl [Example 295, di(3-chloro-4-methylphenyl)dimethylaminoethylthioborane] | 107 | – | – | 800 nM | 107 | 800 nM | – | – | – | – | 0.92 | 0.92 | – | – | –
22 | NC(=O)NCCCC(N)C(=O)OB(c1ccccc1)c1ccccc1 (stereo not drawn) [Example 307, diphenyl(citrullinate-O,N)borane] | 54 | – | – | 500 nM | 54 | 500 nM | – | – | – | – | 1.06 | 1.06 | – | – | –
23 | NCCCC(N)C(=O)OB(c1ccccc1)c1ccccc1 (stereo not drawn) [Example 308, diphenyl(ornithinate-O,N)borane] | 27 | – | – | 500 nM | – | 500 nM | – | 27 | – | – | 1.05 | – | – | 1.05 | –
24 | NCCOB(c1ccccc1)c1cccc(COCc2ccccc2B(OCCN)c2ccccc2)c1 [Example 334] | 21 | – | – | 300 nM | 21 | 300 nM | – | – | – | – | 1.02 | 1.02 | – | – | –
